Measured values from publication PMC4722047, “Purification and characterization of the enzymes involved in nicotinamide adenine dinucleotide degradation by Penicillium brevicompactum NRC 829” (3 Biotech, 2016).

System: T1, NAD aminohydrolase (NAD deaminase)
T1 construct: native enzyme purified from mycelial extract (acetone, DEAE-Sephadex A-25, Sephadex G-100); 91 kDa by SDS-PAGE
Assay: discontinuous ammonia release (Nessler's reagent)
Assay type: biochemical, Penicillium brevicompactum
Settings: pH 6.0, 50 mM Tris-acetate
Source text: discontinuous ammonia release (Nessler's reagent) on NAD aminohydrolase (NAD deaminase)

[1] = 40 °C (conditions given for NAD)

Row | Km [1] [µM] | Km (40 °C, 30 min, 1.5-20 µM NAD+) [µM] | SMILES
1 | 6.25 |  | Nc1ncnc2c1ncn2[C@@H]1O[C@H](COP(=O)(O)OP(=O)(O)O)[C@@H](O)[C@H]1O [ADP]
2 | 8.33 |  | Nc1ncnc2c1ncn2[C@@H]1O[C@H](COP(=O)(O)O)[C@@H](O)[C@H]1O [AMP]
3 |  | 5.2 | NC(=O)c1ccc[n+]([C@@H]2O[C@H](COP(=O)(O)OP(=O)(O)OC[C@H]3O[C@@H](n4cnc5c(N)ncnc54)[C@H](O)[C@@H]3O)[C@@H](O)[C@H]2O)c1 [NAD]

Row | SMILES | Km [1] [µM] | Km (40 °C, 30 min, 1.5-20 µM NAD+) [µM]
4 | Nc1ncnc2c1ncn2[C@@H]1O[C@H](CO)[C@@H](O)[C@H]1O [Adenosine] | 4.5 | 
